The values below are quoted from earlier work in patent US20040052761A1, “Localized delivery system for cancer drugs, phenstatin, using N-isopropylacrylamide” (priority 2002, published 2004).

Series [1] concerns tubulin. The note with it: reference (1).
In series [2] the test system is tubulin. The settings on record: reference (1). This is another data set of the same source.

For `COc1ccc(C(=O)c2cc(OC)c(OC)c(OC)c2)cc1O` [Phenstatin], the “inhibition of tubulin polymerization” value in series [1] is listed as “potent inhibitor”. Further, the “inhibition of the binding of colchicines to tubulin” value in series [2] is given as “potent inhibitor”.
